Reference: patent publication US20260137698A1, “CYCLIN-DEPENDENT KINASE 7 INHIBITORS” (JOINT STOCK COMPANY «BIOCAD», priority 2022, published 2026)
Read-outs that look alike come from different tables or passages of the source.

What was measured:
CDK9/Cyclin K = CDK9/Cyclin K (Homo sapiens, UniProt P50750); experiment: Inhibition of CDK9/Cyclin K kinase activity (ADP-Glo); type: biochemical
Outline: (§1)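 Kinase preincubated with compound (11 points, 4-fold steps from 50 μM) for 10 minutes at 25° C. in kinase buffer A with DTT, then reacted 40-60 minutes at 25° C. with ATP and CDKtide, Histone H1 or PDKtide substrate. ADP formation read by ADP-Glo luminescence; IC50 from four-parameter fit.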

[1] = Passive membrane permeability through PAMPA artificial membrane, pH 7.4; type: in vitro ADME; settings: pH 7.4, 10 μmol, 20 hours at room temperature, mean of multiple measurements, read-out: PAMPA passive permeability Pe
Outline: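 Compound at 10 μmol in 0.01 M phosphate buffer pH 7.4 placed in donor wells over lecithin-phospholipid-impregnated PVDF filter, buffer in acceptor; 20 h at room temperature. Donor and acceptor levels measured by RP-HPLC-UV; Pe (cm/s) and membrane retention R (%) calculated.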

[2] = test system: MDA-MB-468 (triple negative breast cancer); experiment: Antiproliferative assay on MDA-MB-468 cells (AlamarBlue, 96 h); type: cell-based; settings: Homo sapiens, mean value from several measurements
CDK2/Cyclin A = CDK2/Cyclin A (Homo sapiens, UniProt P24941); experiment: Inhibition of CDK2/Cyclin A kinase activity (ADP-Glo); type: biochemical
Outline: as §1

CDK7/Cyclin H/MNAT1 = CDK7/Cyclin H/MNAT1 (Homo sapiens, UniProt P50613); experiment: Inhibition of CDK7/Cyclin H/MNAT1 kinase activity (ADP-Glo); type: biochemical
Outline: as §1

[3] = mean value from several measurements, read-out: IC50 CDK9/Cyclin K
[4] = mean value from several measurements, read-out: IC50 CDK2/Cyclin A
[5] = mean value from several measurements, read-out: IC50 CDK7/Cyclin H/MNAT
[6] = mean of multiple measurement series, ATP 50 μM, read-out: CDK9/Cyclin K IC50
[7] = mean of multiple measurement series, ATP 50 μM, read-out: CDK2/Cyclin A IC50
[8] = mean of multiple measurement series, ATP 10 μM, read-out: CDK7/Cyclin H/MNAT1 IC50

Chain of CDK9/Cyclin K (P50750 whole entry): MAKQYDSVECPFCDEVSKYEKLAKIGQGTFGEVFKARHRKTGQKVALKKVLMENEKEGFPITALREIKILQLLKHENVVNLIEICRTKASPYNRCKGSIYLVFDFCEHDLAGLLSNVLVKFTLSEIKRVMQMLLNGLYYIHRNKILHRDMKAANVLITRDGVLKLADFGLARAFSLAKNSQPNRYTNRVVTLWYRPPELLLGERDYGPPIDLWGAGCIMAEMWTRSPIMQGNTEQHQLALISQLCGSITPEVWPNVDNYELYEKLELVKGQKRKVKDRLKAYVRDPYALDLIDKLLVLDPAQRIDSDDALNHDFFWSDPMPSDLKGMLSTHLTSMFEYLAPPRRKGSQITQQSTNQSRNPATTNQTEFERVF
Chain of CDK9/Cyclin K (O75909 whole entry partner): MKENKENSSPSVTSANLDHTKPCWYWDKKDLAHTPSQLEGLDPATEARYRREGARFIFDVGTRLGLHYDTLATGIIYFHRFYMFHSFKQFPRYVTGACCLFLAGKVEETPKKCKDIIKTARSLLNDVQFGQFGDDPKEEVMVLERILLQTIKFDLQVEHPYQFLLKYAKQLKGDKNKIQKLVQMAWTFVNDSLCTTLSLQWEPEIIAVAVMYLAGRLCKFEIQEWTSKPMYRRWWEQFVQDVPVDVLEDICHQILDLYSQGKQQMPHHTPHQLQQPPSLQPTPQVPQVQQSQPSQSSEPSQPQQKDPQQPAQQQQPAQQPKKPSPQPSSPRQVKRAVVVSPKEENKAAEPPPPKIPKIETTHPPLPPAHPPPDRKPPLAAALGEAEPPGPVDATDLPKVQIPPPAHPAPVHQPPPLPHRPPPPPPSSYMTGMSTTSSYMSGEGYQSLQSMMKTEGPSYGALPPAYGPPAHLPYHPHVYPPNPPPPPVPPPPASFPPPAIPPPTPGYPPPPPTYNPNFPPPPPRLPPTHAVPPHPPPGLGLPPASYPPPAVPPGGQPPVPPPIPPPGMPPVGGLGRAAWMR
Chain of CDK7/Cyclin H/MNAT1 (P50613 whole entry): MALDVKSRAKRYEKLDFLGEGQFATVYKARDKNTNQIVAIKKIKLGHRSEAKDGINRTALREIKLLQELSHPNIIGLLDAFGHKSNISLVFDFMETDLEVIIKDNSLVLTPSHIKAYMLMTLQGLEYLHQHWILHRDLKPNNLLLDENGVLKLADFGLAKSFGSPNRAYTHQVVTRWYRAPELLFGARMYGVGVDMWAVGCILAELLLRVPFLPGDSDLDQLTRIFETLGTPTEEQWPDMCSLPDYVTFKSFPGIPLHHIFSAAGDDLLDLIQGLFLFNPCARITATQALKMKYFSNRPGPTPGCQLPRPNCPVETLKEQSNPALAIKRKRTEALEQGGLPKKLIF
Chain of CDK7/Cyclin H/MNAT1 (P51946 whole entry partner): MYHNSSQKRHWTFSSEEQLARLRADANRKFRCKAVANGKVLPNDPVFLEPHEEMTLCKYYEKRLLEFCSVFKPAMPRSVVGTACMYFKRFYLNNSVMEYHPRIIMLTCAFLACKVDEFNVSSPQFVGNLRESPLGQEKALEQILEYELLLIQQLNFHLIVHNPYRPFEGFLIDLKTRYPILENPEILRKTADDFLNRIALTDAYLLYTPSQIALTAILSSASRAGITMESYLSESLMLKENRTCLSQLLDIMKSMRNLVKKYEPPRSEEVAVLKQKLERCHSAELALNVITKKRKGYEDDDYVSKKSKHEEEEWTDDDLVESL
Chain of CDK7/Cyclin H/MNAT1 (P51948 whole entry partner): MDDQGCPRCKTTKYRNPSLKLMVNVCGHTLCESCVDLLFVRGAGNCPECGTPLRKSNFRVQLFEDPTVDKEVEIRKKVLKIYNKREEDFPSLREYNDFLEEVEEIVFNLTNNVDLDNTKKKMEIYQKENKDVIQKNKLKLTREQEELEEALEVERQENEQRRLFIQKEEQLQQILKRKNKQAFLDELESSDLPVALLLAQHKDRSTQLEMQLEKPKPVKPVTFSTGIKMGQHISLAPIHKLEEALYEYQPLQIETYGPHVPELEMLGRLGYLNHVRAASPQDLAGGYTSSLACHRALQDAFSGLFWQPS

SMILES	IC50 (CDK9/Cyclin K; [3]) [nM]	Papp at 20 h, 10 μmol [1] [×10⁻⁶ cm/s]	IC50 [2] [nM]	IC50 (CDK2/Cyclin A; [4]) [nM]	IC50 (CDK7/Cyclin H/MNAT1; [5]) [nM]	IC50 (CDK9/Cyclin K; [6]) [nM]	IC50 (CDK2/Cyclin A; [7]) [nM]	IC50 (CDK7/Cyclin H/MNAT1; [8]) [nM]
Cn1cc(-n2ccc3c(-c4nc(N[C@H]5CCC(C)(C)NC5)ncc4C(F)(F)F)c[nH]c3c2=O)cn1 [CDK7_1123, 3-(2-{[(3S)-6,6-dimethylpiperidin-3-yl]amino}-5-(trifluoromethyl)py-rimidin-4-yl)-6-(1-methyl-1H-pyrazol-4-yl)-1H,6H,7H-pyrrolo[2,3-c]pyridin-7-one]	> 200	< 1	< 10	> 200	< 5	265	35200	< 5
O=c1c2[nH]cc(-c3nc(N[C@H]4CCCNC4)ncc3C(F)(F)F)c2ccn1Cc1ccccc1 [CDK7_961, 6-benzyl-3-(2-{[(3S)-piperidin-3-yl]amino}-5-(trifluoromethyl)py-rimidin-4-yl)-1H,6H,7H-pyrrolo[2,3-c]pyridin-7-one]	50 to 200	1 to 5	< 10	> 200	< 5	69	3700	< 5
Cn1cc(N2CCCc3c(-c4nc(N[C@H]5CCC(C)(C)NC5)ncc4C(F)(F)F)c[nH]c3C2=O)cn1 [CDK7_1122, 3-(2-{[(3S)-6,6-dimethylpiperidin-3-yl]amino}-5-(trifluoromethyl)py-rimidin-4-yl)-7-(1-methyl-1H-pyrazol-4-yl)-1H,4H,5H,6H,7H, 8H-pyrrolo[2,3-c]azepin-8-one]	> 200	1 to 5	100 to 1000		5 to 50			
CC(C)N1CCCc2c(-c3nc(N[C@H]4CCC(C)(C)NC4)ncc3C(F)(F)F)c[nH]c2C1=O [CDK7_1229, 3-(2-{[(3S)-6,6-dimethylpiperidin-3-yl]amino}-5-(trifluoromethyl)py-rimidin-4-yl)-7-(propan-2-yl)-1H,4H,5H,6H,7H, 8H-pyrrolo[2,3-c]azepin-8-one]	> 200	5 to 10	10 to 100	> 200	< 5	485	22900	< 5
O=C1c2[nH]cc(-c3nc(N[C@H]4CCC5(CC5)NC4)ncc3C(F)(F)F)c2CCCN1C1CC1 [CDK7_1276, 3-(2-{[(6S)-4-azaspiro[2.5]octan-6-yl]amino}-5-(trifluoromethyl)py-rimidin-4-yl)-7-cyclopropyl-1H,4H,5H,6H,7H, 8H-pyrrolo[2,3-c]azepin-8-one]	> 200	5 to 10	< 10	> 200	< 5	296	6220	< 5
Cn1cc(-n2ccc3c(-c4nc(N[C@H]5CCCNC5)ncc4C(F)(F)F)c[nH]c3c2=O)cn1 [CDK7_959, 6-(1-methyl-1H-pyrazol-4-yl)-3-(2-{[(3S)-piperidin-3-yl]amino}-5-(trifluoromethyl)py-rimidin-4-yl)-1H,6H,7H-pyrrolo[2,3-c]pyridin-7-one]	50 to 200	< 1	< 10	> 200	< 5	106	5260	< 5
CC(C)N1CCCc2c(-c3nc(N[C@H]4CCC5(CC5)NC4)ncc3C(F)(F)F)c[nH]c2C1=O [CDK7_1277, 3-(2-{[(6S)-4-azaspiro[2.5]octan-6-yl]amino}-5-(trifluoromethyl)py-rimidin-4-yl)-7-(propan-2-yl)-1H,4H,5H,6H,7H, 8H-pyrrolo[2,3-c]azepin-8-one]	> 200	5 to 10	< 10	> 200	< 5	442	14300	< 5

Now from value to compound:

IC50 (CDK9/Cyclin K; [3]) [nM]	Papp at 20 h, 10 μmol [1] [×10⁻⁶ cm/s]	IC50 [2] [nM]	IC50 (CDK2/Cyclin A; [4]) [nM]	IC50 (CDK7/Cyclin H/MNAT1; [5]) [nM]	IC50 (CDK9/Cyclin K; [6]) [nM]	IC50 (CDK2/Cyclin A; [7]) [nM]	IC50 (CDK7/Cyclin H/MNAT1; [8]) [nM]	SMILES
> 200	< 1	100 to 1000	> 200	5 to 50				Cn1cc(N2CCCc3c(-c4nc(N[C@H]5CCCNC5)ncc4C(F)(F)F)c[nH]c3C2=O)cn1 [CDK7_955, 7-(1-methyl-1H-pyrazol-4-yl)-3-(2-{[(3S)-piperidin-3-yl]amino}-5-(trifluoromethyl)py-rimidin-4-yl)-1H,4H,5H,6H,7H, 8H-pyrrolo[2,3-c]azepin-8-one]
> 200	1 to 5	10 to 100	> 200	< 5				CCN1CCCc2c(-c3nc(N[C@H]4CCC(C)(C)NC4)ncc3C(F)(F)F)c[nH]c2C1=O [CDK7_1259, 3-(2-{[(3S)-6,6-dimethylpiperidin-3-yl]amino}-5-(trifluoromethyl)py-rimidin-4-yl)-7-ethyl-1H,4H,5H,6H,7H, 8H-pyrrolo[2,3-c]azepin-8-one]
> 200	1 to 5	10 to 100	> 200	< 5	441	13900	< 5	CC1(C)CC[C@H](Nc2ncc(C(F)(F)F)c(-c3c[nH]c4c3CCCN(C3CC3)C4=O)n2)CN1 [CDK7_1225, 7-cyclopropyl-3-(2-{[(3S)-6,6-dimethylpiperidin-3-yl]amino}-5-(trifluoromethyl)py-rimidin-4-yl)-1H,4H,5H,6H,7H, 8H-pyrrolo[2,3-c]azepin-8-one]
> 200	1 to 5	< 10	> 200	< 5				O=C1c2[nH]cc(-c3nc(NC4CCCNC4)ncc3C(F)(F)F)c2CCCN1C1CC1 (stereo not shown) [CDK7_1188]
	1 to 5	100 to 1000		5 to 50				O=C1c2[nH]cc(-c3nc(N[C@H]4CCCNC4)ncc3C(F)(F)F)c2CCCN1c1ccccn1 [CDK7_1176, 3-(2-{[(3S)-piperidin-3-yl]amino}-5-(trifluoromethyl)py-rimidin-4-yl)-7-(pyridin-2-yl)-1H,4H,5H,6H,7H, 8H-pyrrolo[2,3-c]azepin-8-one]
50 to 200	1 to 5	< 10	> 200	< 5	60	5830	< 5	CN1CCCc2c(-c3nc(N[C@H]4CCCNC4)ncc3C(F)(F)F)c[nH]c2C1=O [CDK7_953, 7-methyl-3-(2-{[(3S)-piperidin-3-yl]amino}-5-(trifluoromethyl)py-rimidin-4-yl)-1H,4H,5H,6H,7H, 8H-pyrrolo[2,3-c]azepin-8-one]
> 200	1 to 5	< 10	> 200	< 5	182	15700	< 5	CN1CCCc2c(-c3nc(N[C@H]4CCC(C)(C)NC4)ncc3C(F)(F)F)c[nH]c2C1=O [CDK7_1187, 3-(2-{[(3S)-6,6-dimethylpiperidin-3-yl]amino}-5-(trifluoromethyl)py-rimidin-4-yl)-7-methyl-1H,4H,5H,6H,7H, 8H-pyrrolo[2,3-c]azepin-8-one]
> 200	5 to 10	10 to 100	> 200	< 5				CC1(C)CC[C@H](Nc2ncc(C(F)(F)F)c(-c3c[nH]c4c3CCCN(CC3CC3)C4=O)n2)CN1 [CDK7_1227, 7-(cyclopropylmeth-yl)-3-(2-{[(3S)-6,6-dimethylpiperidin-3-yl]amino}-5-(trifluoromethyl)py-rimidin-4-yl)-1H,4H,5H,6H,7H, 8H-pyrrolo[2,3-c]azepin-8-one]
> 200	1 to 5	10 to 100	> 200	< 5				CC1CCc2c(-c3nc(N[C@H]4CCCNC4)ncc3C(F)(F)F)c[nH]c2C(=O)N1C (stereo partly drawn) [CDK7_1254, 6,7-dimethyl-3-(2-{[(3S)-piperidin-3-yl]amino}-5-(trifluoromethyl)py-rimidin-4-yl)-1H,4H,5H,6H,7H, 8H-pyrrolo[2,3-c]azepin-8-one]
> 200	1 to 5	10 to 100	> 200	< 5				O=C1c2[nH]cc(-c3nc(NC4CCCNC4)ncc3C(F)(F)F)c2CCCN1c1nccs1 (stereo not shown) [CDK7_1172]
